Experimental data published in the NIST ThermoML archive (doi:10.1016/j.jct.2015.03.023).
“And” between values parts separate entries of the source, which are not always exact repeats. Identical values can stand only once.

Legend:
[1] = Liquid; for speed of sound / mass density: 101.33 kPa; for speed of sound: Sing-around technique in a fixed-path interferometer; for mass density: Vibrating tube method; for vapor or sublimation pressure: Ebulliometric method (Recirculating still)
[2] = refractive index (Na D-line) (dimensionless); settings: 101.33 kPa, Liquid, Standard Abbe refractometry
[3] = refractive index (Na D-line) (dimensionless); xn = mol fraction of the nth substance listed; settings: 101.22 kPa, Liquid, Standard Abbe refractometry

CCCCn1cc[n+](C)c1.[I-] [1-butyl-3-methylimidazolium iodide]
Settings | mass density, 293.15 K [kg/m3] | mass density, 298.15 K [kg/m3] | mass density, 308.15 K [kg/m3] | refractive index, 293.15 K | refractive index, 298.15 K | refractive index, 308.15 K | speed of sound, 293.15 K [m/s] | speed of sound, 298.15 K [m/s] | speed of sound, 308.15 K [m/s]
[1] | 1483.5 | 1479.6 | 1471.7 | – | – | – | 1508.1 | 1497.5 | 1473.3
[2] | – | – | – | 1.5825 | 1.581 | 1.5781 | – | – | –

CCCCn1cc[n+](C)c1.[I-] [1-butyl-3-methylimidazolium iodide] + CCCCO
refractive index, [3]
Settings | x1 = 0.108 | x1 = 0.171 | x1 = 0.311 | x1 = 0.381 | x1 = 0.51 | x1 = 0.574 | x1 = 0.623 | x1 = 0.802 | x1 = 0.85 | x1 = 1
293.15 K | – | – | 1.4864 | 1.5007 | 1.5237 | 1.5339 | 1.541 | 1.5634 | 1.5686 | 1.5825
298.15 K | 1.4332 | 1.4508 | 1.4848 | 1.4991 | 1.5221 | 1.5322 | 1.5393 | 1.5618 | 1.567 | 1.581
308.15 K | 1.4294 | 1.4472 | 1.4815 | 1.4958 | 1.5189 | 1.5289 | 1.5361 | 1.5587 | 1.5639 | 1.5781

CCCCO [butan-1-ol]
Settings | mass density, [1] [kg/m3] | refractive index, [2] | speed of sound, [1] [m/s] | vapor or sublimation pressure, [1] [kPa]
293.15 K | 809.8 | 1.3992 and 1.3993 | 1256.3 | –
298.15 K | 805.9 | 1.3973 | 1239.5 | –
308.15 K | 798.2 | 1.3932 | 1205.9 | –
353.15 K | – | – | – | 21.19
363.15 K | – | – | – | 33.8
373.15 K | – | – | – | 51.73

CCCCO [butan-1-ol] + CCCCn1cc[n+](C)c1.[I-]
[3], x2 = 0
Settings | refractive index
293.15 K | 1.3992
298.15 K | 1.3973
308.15 K | 1.3932
